According to patent US5670538A, “Use of prodelphinidins for obtaining medicaments intended for the treatment of arthrosis” (Laboratoires Dolisos, priority 1992, dated 1997):
Read-outs that look alike come from different tables or passages of the source.

Columns and labels:
[1] = system: human articular chondrocytes; assay: Radioimmunoassay of cartilaginous proteoglycans (PG) produced in tridimensional culture of human chondrocytes; assay type: cell-based; settings: for PG in the clusters over 12 days: 0-12 days
Source text: The model used for testing the proanthocyanidols, namely the tridimensional culture of human chondrocytes allows chondrorepair to be quantified by the production of matrix substances: type II collagen, proteoglycans, and chondroresorption by the reduction in the levels of prostaglandin E2 and of OH° and O°2 type free radicals produced.
1. Tridimensional culture of human chondrocytes
The technique used has been described in detail (Bassleer et al., 1986).
Briefly, human articular chondrocytes are cultivated in DMEM (Dulbecco's Modification of Eagle's Medium--ICN--Gand, Belgium) with either Ultroser G 1% (GIBCO, Gand, Belgium) or 10% of foetal calf serum (ICN--Gand--Belgium), and 50 μg of ascorbic acid/ml added to it. The cartilage originates from the apparently normal zone of heads of human femur suffering from arthrosis, immediately after an operation carried out to insert a total hip prosthesis; it can also originate from the head of a healthy femur, but which has undergone a traumatism and has had to be replaced. This cartilage is then digested by clostridial collagenase 1 mg/ml (Boehringer-Mannheim, Germany) in a buffer (NaCl 120 mM, CaCl2 1 mM, KCl 5 mM, KH2 PO4 1 mM, NaHCO3 25 mM, glucose 2 mM and Hepes 30 mM, pH 7.4) for 24 hours. After 6 successive washings and centrifugations, the chondrocytes, isolated from their matrix, are cultured in flasks (10^6 cells/2 ml of culture medium) placed on a gyrator (10 rpm). The cultures are kept at 37° C. in an atmosphere of air 95%-CO2 5% (Bassleer et al., 1986). Cultivated under these conditions, after 4 to 5 days the chondrocytes form a tridimensional cluster in each flask. These clusters, which at first have a flocculent appearance, then tend to condense during the culture. After two weeks, their diameter is, in general, from 1 to 2 mm.
The fresh weight of the clusters increases with the duration of the culture, above all during the few first days.
2. Radioimmunoassay of cartilaginous proteoglycans (PG)
The PGs are measured with a radioimmunoassay (RIA) which is specific and sensitive to human cartilaginous PGs (Gysen et al. 1984). The PGs were extracted from human cartilage, according to the methods described by Roughley et al., (1981) and by Bayliss and Venn (1980). The antiserum against the cartilaginous PGs was obtained from the rabbit according to the technique of Vaitukaitis et al. (1971). The radioimmunoassay is carried out in a 0.4 ml volume consisting of 0.1 ml of tracer solution (15000 to 20000 cpm ^125 I-PG, labelled by the chloramine T method (Greenwood, 1973). 0.1 ml of anti-PG antiserum diluted to 1/5000 in phosphate-buffered saline (PBS-50 mM PO4, 150 mM NaCl ), containing BSA (5 g/l bovine serum albumin and 6.7 mM sodium azide) (incubation buffer) and 0.2 ml of several dilutions of the culture medium or of the cluster extract or also of the antigen (0.5 -500 ng/tube).
After four days at 4° C., the free PGs* (radioactive PGs) are separated from the PG*-antibody complexes by double precipitation (Franchimont et al., 1983).
The sensitivity of the assay is 0.6 ng/tube. The accuracy of measurement is of the order of 4%. The coefficients of the intra- and inter assay variation are less than 10% and 20% respectively.
The antibodies are directed against the antigenic determinants of the central protein of PG. There is a complete crossed reaction with human PGs of cartilage from the ribs, vertebral disks and trachea, even with PGs extracted from veins or arteries. There is no cross reaction with glycosaminoglycans or with PGs extracted from foetal tissues or the small PGs from bone.
The PGs are measured directly in the culture medium. As for the chondrocyte clusters, they are washed 3 times in a phosphate-buffered saline (PBS-50 mM PO4, 150 mM NaCl pH 7.4) containing protease inhibitors (Oegema et al., 1975:100 mM 6-aminohexanoic acid, 10 mM EDTA, 50 mM benzamidine hydrochloride, 5.10^-8 M trypsin inhibitor, 6.7 mM sodium azide and 200 U/ml superoxide dismutase). […]

[2] = system: polymorphonuclear cells (PMNs); assay: Production of the superoxide anion by the polymorphonuclear cells (PMNs), reduction of ferricytochrome C; assay type: cell-based; settings: 0.032 mM; phorbol myristate acetate; no conclusion possible on superoxide inhibition
Method: 10. Production of the superoxide anion (O°^2) by the polymorphonuclear cells (PMNs).
This is measured with a double beam spectrophotometer which allows the reduction of ferricytochrome C by O°2 tc be monitored. The incubation medium (2.5 ml) is constituted by PBS buffer containing glucose (7.5 mM), ferricytochrome C (0.956 mM), CaCl2 (2.3 mM), MgCl2 (1.1 mM), 7.5.10^6 of cells and the substance to be tested at a concentration of 0.032 mM. The reaction is triggered by adding phorbol myristate acetate at a final concentration of 0.012 mM and the reduction of the cytochrome C is monitored at 550 nm for 10 minutes. The reference cell contains the same material as that described above with an additional 48 μg of superoxide dismutase (SOD)/ml of medium.

In the case of `Oc1cc(O)c2c(c1)O[C@H](c1cc(O)c(O)c(O)c1)[C@@H](O)[C@@H]2c1c(O)cc(O)c2c1O[C@H](c1cc(O)c(O)c(O)c1)[C@@H](O)C2` [Substance Ib, GC-(4 alpha→8) GC], the “PG in the clusters over 12 days” value ([1]; 1% Ultroser G, 1 μg/ml) is reported as 742 ± 62 ng/μg DNA, the “PG in the clusters over 12 days” value ([1]; 1% Ultroser G, 10 μg/ml) is reported as 931 ± 24 ng/μg DNA and the “PG in the clusters over 12 days” value ([1]; 1% Ultroser G, 100 μg/ml) is reported as 1108 ± 45 ng/μg DNA. The “Concentrations of PG in the clusters, effect in words” value ([1]; 1% Ultroser G, 1 μg/ml) was “no significant effect”, the “PGs released in the culture medium” value ([1]; 1% Ultroser G, culture time 0-4 days, 1 μg/ml) was 13.0 ± 1.22 μg/μg DNA/96 h and the “PGs released in the culture medium” value ([1]; 1% Ultroser G, culture time 0-4 days, 10 μg/ml) was 20.4 ± 3.0 μg/μg DNA/96 h. The “PGs released in the culture medium” value ([1]; 1% Ultroser G, culture time 0-4 days, 100 μg/ml) was 28.2 ± 2.92 μg/μg DNA/96 h, the “PGs released in the culture medium” value ([1]; 1% Ultroser G, culture time 4-8 days, 1 μg/ml) was 3.45 ± 0.56 μg/μg DNA/96 h and the “PGs released in the culture medium” value ([1]; 1% Ultroser G, culture time 4-8 days, 10 μg/ml) was 4.78 ± 0.56 μg/μg DNA/96 h. The “PGs released in the culture medium” value ([1]; 1% Ultroser G, culture time 4-8 days, 100 μg/ml) was 5.65 ± 0.24 μg/μg DNA/96 h, the “PGs released in the culture medium” value ([1]; 1% Ultroser G, culture time 8-12 days, 1 μg/ml) was 0.72 ± 0.08 μg/μg DNA/96 h and the “PGs released in the culture medium” value ([1]; 1% Ultroser G, culture time 8-12 days, 10 μg/ml) was 1.00 ± 0.12 μg/μg DNA/96 h. For the same molecule, the “PGs released in the culture medium” value ([1]; 1% Ultroser G, culture time 8-12 days, 100 μg/ml) was 1.32 ± 0.01 μg/μg DNA/96 h, the “Proteoglycans released during the 12 days of culture, Abs” value ([1]; 1% Ultroser G, cumulative, 1 μg/ml) was 17.2 μg/μg DNA/12 days and the “Proteoglycans released during the 12 days of culture, Abs” value ([1]; 1% Ultroser G, cumulative, 10 μg/ml) was 26.3 μg/μg DNA/12 days. For the same molecule, the “Proteoglycans released during the 12 days of culture, Abs” value ([1]; 1% Ultroser G, cumulative, 100 μg/ml) was 35.2 μg/μg DNA/12 days, the activity at 1 µg/mL ([1]; Homo sapiens, Chondrocyte, 288 h, 1% Ultroser G, cumulative, 1 μg/ml, control = 100, read-out: Proteoglycans released during the 12 days of culture, %) was 98% and the activity at 10 µg/mL ([1]; Homo sapiens, Chondrocyte, 288 h, 1% Ultroser G, cumulative, 10 μg/ml, control = 100, read-out: Proteoglycans released during the 12 days of culture, %) was 149%. The activity at 100 µg/mL ([1]; Homo sapiens, Chondrocyte, 288 h, 1% Ultroser G, cumulative, 100 μg/ml, control = 100, read-out: Proteoglycans released during the 12 days of culture, %) was 200%, the activity at 10 µg/mL ([1]; Homo sapiens, Chondrocyte, foetal calf serum, Table 14, 0-4 days, 10 μg/ml, control = 100%, read-out: PG in the culture medium, % of control) was 117% and the activity at 100 µg/mL ([1]; Homo sapiens, Chondrocyte, foetal calf serum, Table 14, 0-4 days, 100 μg/ml, control = 100%, read-out: PG in the culture medium, % of control) was 184%. It also gave an activity at 10 µg/mL ([1]; Homo sapiens, Chondrocyte, foetal calf serum, Table 14, 4-8 days, 10 μg/ml, control = 100%, read-out: PG in the culture medium, % of control) of 117%, an activity at 100 µg/mL ([1]; Homo sapiens, Chondrocyte, foetal calf serum, Table 14, 4-8 days, 100 μg/ml, control = 100%, read-out: PG in the culture medium, % of control) of 136% and an activity at 10 µg/mL ([1]; Homo sapiens, Chondrocyte, foetal calf serum, Table 15, 0-4 days, 10 μg/ml, control = 100%, read-out: PG in the culture medium, % of control) of 134%. The activity at 100 µg/mL ([1]; Homo sapiens, Chondrocyte, foetal calf serum, Table 15, 0-4 days, 100 μg/ml, control = 100%, read-out: PG in the culture medium, % of control) was 149%, the activity at 10 µg/mL ([1]; Homo sapiens, Chondrocyte, foetal calf serum, Table 15, 4-8 days, 10 μg/ml, control = 100%, read-out: PG in the culture medium, % of control) was 125% and the activity at 100 µg/mL ([1]; Homo sapiens, Chondrocyte, foetal calf serum, Table 15, 4-8 days, 100 μg/ml, control = 100%, read-out: PG in the culture medium, % of control) was 137%. It also gave an activity at 10 µg/mL ([1]; Homo sapiens, Chondrocyte, foetal calf serum, Table 16, 0-8 days, 10 μg/ml, control = 100%, read-out: PG in the clusters over 8 days, % of control) of 141%, an activity at 100 µg/mL ([1]; Homo sapiens, Chondrocyte, foetal calf serum, Table 16, 0-8 days, 100 μg/ml, control = 100%, read-out: PG in the clusters over 8 days, % of control) of 146% and an activity at 10 µg/mL ([1]; Homo sapiens, Chondrocyte, foetal calf serum, Table 17, 0-8 days, 10 μg/ml, control = 100%, read-out: PG in the clusters over 8 days, % of control) of 126%. The activity at 100 µg/mL ([1]; Homo sapiens, Chondrocyte, foetal calf serum, Table 17, 0-8 days, 100 μg/ml, control = 100%, read-out: PG in the clusters over 8 days, % of control) was 144%, the “PGs in the clusters, effect in words” value ([1]; foetal calf serum, 10 and 100 μg/ml) was “significantly increased” and the “PG in the culture medium” value ([1]; foetal calf serum, Table 14, 0-4 days, 10 μg/ml) was 7.6 ± 0.41 μg/μg DNA - 96 H. For the same molecule, the “PG in the culture medium” value ([1]; foetal calf serum, Table 14, 0-4 days, 100 μg/ml) was 11.9 ± 2.09 μg/μg DNA - 96 H, the “PG in the culture medium” value ([1]; foetal calf serum, Table 14, 4-8 days, 10 μg/ml) was 2.32 ± 0.21 μg/μg DNA - 96 H and the “PG in the culture medium” value ([1]; foetal calf serum, Table 14, 4-8 days, 100 μg/ml) was 2.71 ± 0.24 μg/μg DNA - 96 H. The “PG in the culture medium” value ([1]; foetal calf serum, Table 15, 0-4 days, 10 μg/ml) was 7.1 ± 0.36 μg/μg DNA - 96 H, the “PG in the culture medium” value ([1]; foetal calf serum, Table 15, 0-4 days, 100 μg/ml) was 7.9 ± 0.30 μg/μg DNA - 96 H and the “PG in the culture medium” value ([1]; foetal calf serum, Table 15, 4-8 days, 10 μg/ml) was 2.1 ± 1.16 μg/μg DNA - 96 H. For the same molecule, the “PG in the culture medium” value ([1]; foetal calf serum, Table 15, 4-8 days, 100 μg/ml) was 2.3 ± 0.13 μg/μg DNA - 96 H, the “PG in the clusters over 8 days” value ([1]; foetal calf serum, Table 16, 0-8 days, 10 μg/ml) was 1108 ± 166 ng/μg DNA and the “PG in the clusters over 8 days” value ([1]; foetal calf serum, Table 16, 0-8 days, 100 μg/ml) was 1142 ± 110 ng/μg DNA. For the same molecule, the “PG in the clusters over 8 days” value ([1]; foetal calf serum, Table 17, 0-8 days, 10 μg/ml) was 724.0 ± 72.45 ng/μg DNA, the “PG in the clusters over 8 days” value ([1]; foetal calf serum, Table 17, 0-8 days, 100 μg/ml) was 832.0 ± 59.10 ng/μg DNA and the “Reduction of ferricytochrome C by PMNs” value [2] was “strongly reduced”.
